Like-named read-outs stand apart in the source and are kept apart here.
Biological target: T1, MST1 (Homo sapiens, UniProt Q13043)
T1 sequence (Q13043 1-487): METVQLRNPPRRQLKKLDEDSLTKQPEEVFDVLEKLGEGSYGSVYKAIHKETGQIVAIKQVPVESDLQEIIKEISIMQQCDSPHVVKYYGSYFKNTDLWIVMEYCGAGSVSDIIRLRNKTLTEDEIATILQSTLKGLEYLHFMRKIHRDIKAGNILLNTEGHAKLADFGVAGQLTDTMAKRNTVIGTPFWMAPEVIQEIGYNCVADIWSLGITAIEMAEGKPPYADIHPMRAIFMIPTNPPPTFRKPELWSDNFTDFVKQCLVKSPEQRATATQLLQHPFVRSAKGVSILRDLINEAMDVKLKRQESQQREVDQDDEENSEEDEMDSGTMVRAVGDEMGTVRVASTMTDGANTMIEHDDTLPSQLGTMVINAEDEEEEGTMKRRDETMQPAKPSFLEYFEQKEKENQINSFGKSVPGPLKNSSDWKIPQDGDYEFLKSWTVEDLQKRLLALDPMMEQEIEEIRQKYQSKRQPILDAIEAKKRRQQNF
Assay: In vitro measurement of MST1 inhibition (Z′-Lyte kinase assay)
Assay type: biochemical

[1] = 1 μM ATP, read-out: IC50 (μM) 1 μM ATP
[2] = 50 μM ATP, read-out: IC50 (μM) 50 μM ATP

Compound	IC50 [1] [µM]	IC50 [2] [µM]
[2H]C([2H])([2H])N(C1CC1)S(=O)(=O)c1ccc(-c2cnc(N)c(-c3ccc4c(c3)CCNC4=O)n2)nc1 [6-(5-amino-6-(1-oxo-1,2,3,4-tetrahydroisoquinolin-6-yl)pyrazin-2-yl)-N-cyclopropyl-N-trideuteromethylpyridine-3-sulfonamide]	< 0.01	< 0.01
CN(C1CC1)S(=O)(=O)c1ccc(-c2cnc(N)c(-c3ccc4c(c3)CCNC4=O)c2)cn1 [6′-amino-N-cyclopropyl-N-methyl-5′-(1-oxo-1,2,3,4-tetrahydroisoquinolin-6-yl)-[3,3′-bipyridine]-6-sulfonamide]	< 0.01	< 0.01
N#CCn1cc(-c2cnc(N)c(-c3ccc4c(c3)CCNC4=O)n2)cn1 [2-(4-(5-amino-6-(1-oxo-1,2,3,4-tetrahydroisoquinolin-6-yl)pyrazin-2-yl)-1H-pyrazol-1-yl)acetonitrile]	< 0.15	< 0.05
CCN(C)S(=O)(=O)c1ccc(-c2cnc(N)c(-c3ccc4c(c3)CCNC4=O)c2)nc1 [6′-amino-N-ethyl-N-methyl-5′-(1-oxo-1,2,3,4-tetrahydroisoquinolin-6-yl)-[2,3′-bipyridine]-5-sulfonamide]	< 0.01	< 0.01
CCOC(=O)Cc1ccc(-c2cnc(N)c(-c3ccc4c(c3)CCNC4=O)n2)cc1 [ethyl 2-(4-(5-amino-6-(1-oxo-1,2,3,4-tetrahydroisoquinolin-6-yl)pyrazin-2-yl)phenyl)acetate]	< 0.15	< 0.05
C[C@H]1CNc2cc(-c3cc(-c4ccc(S(=O)(=O)N(C)C5CC5)cc4)cnc3N)ccc2C(=O)N1 [(S)-4-(6-amino-5-(3-methyl-5-oxo-2,3,4,5-tetrahydro-1H-benzo[e][1,4]diazepin-8-yl)pyridin-3-yl)-N-cyclopropyl-N-methylbenzenesulfonamide]	< 0.01	< 0.01
CN(C1CC1)S(=O)(=O)c1ccc(-c2cnc(N)c(-c3cc4c(cn3)C(=O)NCC4)n2)cc1 [4-(5-amino-6-(8-oxo-5,6,7,8-tetrahydro-2,7-naphthyridin-3-yl)pyrazin-2-yl)-N-cyclopropyl-N-methylbenzenesulfonamide]	< 0.01	< 0.01
Nc1ncc(-c2ccc(S(=O)(=O)NC3CC3)cc2)cc1-c1ccc2c(c1)C1(CC1)CNC2=O [4-(6-amino-5-(1′-oxo-2′,3′-dihydro-1′H-spiro[cyclopropane-1,4′-isoquinolin]-6′-yl)pyridin-3-yl)-N-cyclopropylbenzenesulfonamide]	< 0.01	< 0.01
CCN(C)S(=O)(=O)c1ccc(-c2cnc(N)c(-c3ccc4c(c3)CCCNC4=O)n2)cc1 [4-(5-amino-6-(1-oxo-2,3,4,5-tetrahydro-1H-benzo[c]azepin-7-yl)pyrazin-2-yl)-N-ethyl-N-methylbenzenesulfonamide]	< 0.05	< 0.01
CC1(C)CNC(=O)c2ccc(-c3cc(-c4ccc(C5(C#N)CCOCC5)cc4)cnc3N)cc21 [4-(4-(6-amino-5-(4,4-dimethyl-1-oxo-1,2,3,4-tetrahydroisoquinolin-6-yl)pyridin-3-yl)phenyl)tetrahydro-2H-pyran-4-carbonitrile]	< 0.01	< 0.01
CN(C1CC1)S(=O)(=O)c1ccc(-c2cnc(N)c(-c3ccc4c(O)ncc(Br)c4c3)n2)cc1 [4-(5-amino-6-(4-bromo-1-hydroxyisoquinolin-6-yl)pyrazin-2-yl)-N-cyclopropyl-N-methylbenzenesulfonamide]	< 0.01	< 0.01
Nc1ncc(-c2ccc(S(=O)(=O)NC3CC3)cc2)cc1-c1ccc2c(c1)CCCNC2=O [4-(6-amino-5-(1-oxo-2,3,4,5-tetrahydro-1H-benzo[c]azepin-7-yl)pyridin-3-yl)-N-cyclopropylbenzenesulfonamide]	< 0.01	< 0.01
COC[C@H]1C[C@@H]1N(C)S(=O)(=O)c1ccc(-c2cnc(N)c(-c3ccc4c(c3)CCNC4=O)n2)nc1 [6-(5-amino-6-(1-oxo-1,2,3,4-tetrahydroisoquinolin-6-yl)pyrazin-2-yl)-N-((1S,2S)-2-(methoxymethyl)cyclopropyl)-N-methylpyridine-3-sulfonamide]	< 0.15	< 0.05
Nc1ncc(-c2ccc(S(=O)(=O)N3CCCCC3)cc2)nc1-c1ccc2c(=O)[nH]ccc2c1 [6-(3-amino-6-(4-(piperidin-1-ylsulfonyl)phenyl)pyrazin-2-yl)isoquinolin-1(2H)-one]	< 0.01	< 0.01
CN(C1CC1)S(=O)(=O)c1ccc(-c2cc(-c3ccc4c(c3)CCNC4=O)c(N)nn2)cc1 [4-(6-amino-5-(1-oxo-1,2,3,4-tetrahydroisoquinolin-6-yl)pyridazin-3-yl)-N-cyclopropyl-N-methylbenzenesulfonamide]	< 0.05	< 0.01
CN(C)C(=O)COc1ccc(-c2cnc(N)c(-c3ccc(C(N)=O)cc3)c2)cc1 [4-(2-amino-5-(4-(2-(dimethylamino)-2-oxoethoxy)phenyl)pyridin-3-yl)benzamide]		< 0.15

Compound	IC50 [1] [µM]	IC50 [2] [µM]
CN(C1CC1)S(=O)(=O)c1ccc(-c2cnc(N)c(-c3ccc4c(c3)CCCNC4=O)c2)cc1 [4-(6-amino-5-(1-oxo-2,3,4,5-tetrahydro-1H-benzo[c]azepin-7-yl)pyridin-3-yl)-N-cyclopropyl-N-methylbenzenesulfonamide]	< 0.01	< 0.01
CN(C1CC1)S(=O)(=O)c1ccc(-c2cnc(N)c(-c3ccc4c(c3)CCNC4=O)n2)cc1F [4-(5-amino-6-(1-oxo-1,2,3,4-tetrahydroisoquinolin-6-yl)pyrazin-2-yl)-N-cyclopropyl-2-fluoro-N-methylbenzenesulfonamide]	< 0.01	< 0.01
CN1CCc2cc(-c3nc(-c4ccc(S(=O)(=O)N(C)C5CC5)cc4)cnc3N)ccc2C1=O [4-(5-amino-6-(2-methyl-1-oxo-1,2,3,4-tetrahydroisoquinolin-6-yl)pyrazin-2-yl)-N-cyclopropyl-N-methylbenzenesulfonamide]	< 0.15	< 0.05
Nc1ncc(-c2ccc3c(c2)CC(=O)N3)cc1-c1ccc2c(c1)CCNC2=O [6-(2-amino-5-(2-oxoindolin-5-yl)pyridin-3-yl)-3,4-dihydroisoquinolin-1(2H)-one]	< 0.05	< 0.05
CCN(C1CC1)S(=O)(=O)c1ccc(-c2cnc(N)c(-c3ccc4c(c3)CCNC4=O)n2)cc1 [4-(5-amino-6-(1-oxo-1,2,3,4-tetrahydroisoquinolin-6-yl)pyrazin-2-yl)-N-cyclopropyl-N-ethylbenzenesulfonamide]	< 0.05	< 0.01
CCN(CC)S(=O)(=O)c1ccc(-c2cnc(N)c(-c3ccc4c(c3)CCCC(=O)N4)c2)cc1 [4-(6-amino-5-(2-oxo-2,3,4,5-tetrahydro-1H-benzo[b]azepin-7-yl)pyridin-3-yl)-N,N-diethylbenzenesulfonamide]		< 0.15
Nc1ncc(-c2ccc(C(=O)NCc3ccccc3)cc2)cc1-c1ccc(C(=O)NO)cc1 [4-(2-amino-5-(4-(benzylcarbamoyl)phenyl)pyridin-3-yl)-N-hydroxybenzamide]		< 0.15
Nc1ncc(-c2ccc(S(=O)(=O)NC3CC3)cc2)nc1-c1ncc(-c2ccccc2)[nH]1 [4-(5-amino-6-(5-phenyl-1H-imidazol-2-yl)pyrazin-2-yl)-N-cyclopropylbenzenesulfonamide]		< 0.05
O=C1NCCc2cc(-c3c[nH]c4ncc(-c5ccc(S(=O)(=O)NC6CC6)cc5)cc34)ccc21 [N-cyclopropyl-4-(3-(1-oxo-1,2,3,4-tetrahydroisoquinolin-6-yl)-1H-pyrrolo[2,3-b]pyridin-5-yl)benzenesulfonamide]	< 0.05	< 0.01
Nc1ncc(-c2ccc(C(=O)C(F)(F)F)cc2)nc1-c1ccc2c(c1)CCNC2=O [6-(3-amino-6-(4-(2,2,2-trifluoroacetyl)phenyl)pyrazin-2-yl)-3,4-dihydroisoquinolin-1(2H)-one]	< 0.15	< 0.05
NC(=O)c1ccc(-c2cc(-c3ccc(S(=O)(=O)NC4CC4)cc3)cnc2N)cc1 [4-(2-amino-5-(4-(N-cyclopropylsulfamoyl)phenyl)pyridin-3-yl)benzamide]	< 0.05	< 0.05
Nc1ncc(-c2ccc(F)cc2)nc1-c1ccc2c(c1)C1(CC1)CNC2=O [6′-(3-amino-6-(4-fluorophenyl)pyrazin-2-yl)-2′,3′-dihydro-1′H-spiro[cyclopropane-1,4′-isoquinolin]-1′-one]	< 0.15	< 0.01
CC1(C#N)CCc2cc(-c3cnc(N)c(-c4ccc5c(c4)CCNC5=O)n3)ccc21 (stereo not shown) [5-(5-amino-6-(1-oxo-1,2,3,4-tetrahydroisoquinolin-6-yl)pyrazin-2-yl)-1-methyl-2,3-dihydro-1H-indene-1-carbonitrile]	< 0.05	< 0.01
CN1Cc2cc(-c3nc(-c4ccc(S(=O)(=O)N(C)C5CC5)cc4)cnc3N)ccc2C(=O)N1 [4-(5-amino-6-(3-methyl-1-oxo-1,2,3,4-tetrahydrophthalazin-6-yl)pyrazin-2-yl)-N-cyclopropyl-N-methylbenzenesulfonamide]	< 0.05	< 0.01
CN(C1CC1)S(=O)(=O)c1ccc(-c2cnc(N)c(-c3ccc4c(c3)OCCNC4=O)c2)cc1 [4-(6-amino-5-(5-oxo-2,3,4,5-tetrahydrobenzo[f][1,4]oxazepin-8-yl)pyridin-3-yl)-N-cyclopropyl-N-methylbenzenesulfonamide]	< 0.01	< 0.01

— patent US8440652B2, “MST1 kinase inhibitors and methods of their use” (Lexicon Pharmaceuticals, Inc., priority 2011, dated 2013)
